According to US10351575B2, “Bicyclic urea, thiourea, guanidine and cyanoguanidine compounds useful for the treatment of pain” (Array BioPharma Inc., priority 2012, dated 2019):

How the values were obtained:
Assay in all cases: KinaseProfiler off-target kinase profiling
Format in all cases: biochemical
Settings in all cases: 10 μM, ATP near Km
PKCbetaI = PKCbetaI (Homo sapiens (Human), UniProt P05771)
In short: (§1)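 First, compound is added at 10 μM to each kinase reaction containing ATP around the Km. Second, reactions are run in duplicate. Finally, residual activity is expressed relative to control and the two values are averaged.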

LKB1 = LKB1 (Homo sapiens (Human), UniProt Q15831)
In short: as §1

BTK = BTK (Homo sapiens (Human), UniProt Q06187)
In short: as §1

EphB2 = EphB2 (Homo sapiens (Human), UniProt P29323)
In short: as §1

PTK6 = PTK6 (Homo sapiens (Human), UniProt Q13882)
In short: as §1

EphB1 = EphB1 (Homo sapiens (Human), UniProt P54762)
In short: as §1

MAPKAP-K2 = MAPKAP-K2 (Homo sapiens (Human), UniProt P49137)
In short: as §1

VRK2 = VRK2 (Homo sapiens (Human), UniProt Q86Y07)
In short: as §1

EphA5 = EphA5 (Homo sapiens (Human), UniProt P54756)
In short: as §1

MKK7beta = MKK7beta (Homo sapiens (Human), UniProt O14733)
In short: as §1

Rsk1 = Rsk1 (Homo sapiens (Human), UniProt Q15418)
In short: as §1

PKAC-alpha = PKAC-alpha (Homo sapiens (Human), UniProt P17612)
In short: as §1

EphA7 = EphA7 (Homo sapiens (Human), UniProt Q15375)
In short: as §1

HIPK2 = HIPK2 (Homo sapiens (Human), UniProt Q9H2X6)
In short: as §1

CHK2 = CHK2 (Homo sapiens (Human), UniProt O96017)
In short: as §1

ROCK-II = ROCK-II (Homo sapiens (Human), UniProt O75116)
In short: as §1

GSK3alpha = GSK3alpha (Homo sapiens (Human), UniProt P49840)
In short: as §1

Fgr = Fgr (Homo sapiens (Human), UniProt P09769)
In short: as §1

AKT1 = AKT1 (Homo sapiens (Human), UniProt P31749)
In short: as §1

Mer = Mer (Homo sapiens (Human), UniProt Q12866)
In short: as §1

KIT = KIT (Homo sapiens (Human), UniProt P10721)
In short: as §1

Flt3 = Flt3 (Homo sapiens (Human), UniProt P36888)
In short: as §1

TrkA = TrkA (Homo sapiens (Human), UniProt P04629)
In short: as §1

JNK2alpha2 = JNK2alpha2 (Homo sapiens (Human), UniProt P45984)
In short: as §1

MKK4_m = MKK4_m (Mus musculus (Mouse), UniProt P47809)
In short: as §1

MYLK = MYLK (Homo sapiens (Human), UniProt Q15746)
In short: as §1

mTOR/FKBP12 = mTOR/FKBP12 (Homo sapiens (Human), UniProt P42345)
In short: as §1

Ret = Ret (Homo sapiens (Human), UniProt P07949)
In short: as §1

Abl2 = Abl2 (Homo sapiens (Human), UniProt P42684)
In short: as §1

SGK3 = SGK3 (Homo sapiens (Human), UniProt Q96BR1)
In short: as §1

PRK2 = PRK2 (Homo sapiens (Human), UniProt Q16513)
In short: as §1

BrSK1 = BrSK1 (Homo sapiens (Human), UniProt Q8TDC3)
In short: as §1

PhKgamma2 = PhKgamma2 (Homo sapiens (Human), UniProt P15735)
In short: as §1

NEK11 = NEK11 (Homo sapiens (Human), UniProt Q8NG66)
In short: as §1

MSSK1 = MSSK1 (Homo sapiens (Human), UniProt Q9UPE1)
In short: as §1

Fer = Fer (Homo sapiens (Human), UniProt P16591)
In short: as §1

CDK6/cyclinD3 = CDK6/cyclinD3 (Homo sapiens (Human), UniProt Q00534)
In short: as §1

FGFR4 = FGFR4 (Homo sapiens (Human), UniProt P22455)
In short: as §1

PDGFRalpha = PDGFRalpha (Homo sapiens (Human), UniProt P16234)
In short: as §1

Sequence of EphB2 (P29323 19-1055): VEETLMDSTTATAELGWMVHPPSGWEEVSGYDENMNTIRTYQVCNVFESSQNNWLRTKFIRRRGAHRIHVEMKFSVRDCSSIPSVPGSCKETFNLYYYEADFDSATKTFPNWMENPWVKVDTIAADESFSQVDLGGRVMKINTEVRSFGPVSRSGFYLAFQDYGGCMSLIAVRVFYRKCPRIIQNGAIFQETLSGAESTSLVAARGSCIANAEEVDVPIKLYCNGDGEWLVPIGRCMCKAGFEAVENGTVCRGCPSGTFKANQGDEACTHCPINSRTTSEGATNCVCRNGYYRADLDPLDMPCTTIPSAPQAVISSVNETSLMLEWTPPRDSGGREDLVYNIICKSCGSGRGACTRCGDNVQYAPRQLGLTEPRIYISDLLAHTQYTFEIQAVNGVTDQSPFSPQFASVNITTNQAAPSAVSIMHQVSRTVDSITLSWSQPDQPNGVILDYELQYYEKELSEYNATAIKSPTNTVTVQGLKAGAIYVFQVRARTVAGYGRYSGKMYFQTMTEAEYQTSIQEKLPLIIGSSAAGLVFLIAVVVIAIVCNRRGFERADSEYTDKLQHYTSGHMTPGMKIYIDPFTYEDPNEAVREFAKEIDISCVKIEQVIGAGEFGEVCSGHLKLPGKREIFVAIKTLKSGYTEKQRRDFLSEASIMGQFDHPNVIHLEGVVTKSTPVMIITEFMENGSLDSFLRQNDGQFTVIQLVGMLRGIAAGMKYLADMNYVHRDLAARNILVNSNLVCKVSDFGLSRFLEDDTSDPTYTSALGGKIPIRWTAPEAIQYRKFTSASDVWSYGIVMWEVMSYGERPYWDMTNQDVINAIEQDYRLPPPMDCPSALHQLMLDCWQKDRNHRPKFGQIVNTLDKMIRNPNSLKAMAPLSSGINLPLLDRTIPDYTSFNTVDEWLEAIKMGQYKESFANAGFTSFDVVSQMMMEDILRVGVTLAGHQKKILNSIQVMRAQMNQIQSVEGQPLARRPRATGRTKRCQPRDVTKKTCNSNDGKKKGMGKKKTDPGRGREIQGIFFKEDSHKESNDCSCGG
Sequence of KIT (P10721 26-976): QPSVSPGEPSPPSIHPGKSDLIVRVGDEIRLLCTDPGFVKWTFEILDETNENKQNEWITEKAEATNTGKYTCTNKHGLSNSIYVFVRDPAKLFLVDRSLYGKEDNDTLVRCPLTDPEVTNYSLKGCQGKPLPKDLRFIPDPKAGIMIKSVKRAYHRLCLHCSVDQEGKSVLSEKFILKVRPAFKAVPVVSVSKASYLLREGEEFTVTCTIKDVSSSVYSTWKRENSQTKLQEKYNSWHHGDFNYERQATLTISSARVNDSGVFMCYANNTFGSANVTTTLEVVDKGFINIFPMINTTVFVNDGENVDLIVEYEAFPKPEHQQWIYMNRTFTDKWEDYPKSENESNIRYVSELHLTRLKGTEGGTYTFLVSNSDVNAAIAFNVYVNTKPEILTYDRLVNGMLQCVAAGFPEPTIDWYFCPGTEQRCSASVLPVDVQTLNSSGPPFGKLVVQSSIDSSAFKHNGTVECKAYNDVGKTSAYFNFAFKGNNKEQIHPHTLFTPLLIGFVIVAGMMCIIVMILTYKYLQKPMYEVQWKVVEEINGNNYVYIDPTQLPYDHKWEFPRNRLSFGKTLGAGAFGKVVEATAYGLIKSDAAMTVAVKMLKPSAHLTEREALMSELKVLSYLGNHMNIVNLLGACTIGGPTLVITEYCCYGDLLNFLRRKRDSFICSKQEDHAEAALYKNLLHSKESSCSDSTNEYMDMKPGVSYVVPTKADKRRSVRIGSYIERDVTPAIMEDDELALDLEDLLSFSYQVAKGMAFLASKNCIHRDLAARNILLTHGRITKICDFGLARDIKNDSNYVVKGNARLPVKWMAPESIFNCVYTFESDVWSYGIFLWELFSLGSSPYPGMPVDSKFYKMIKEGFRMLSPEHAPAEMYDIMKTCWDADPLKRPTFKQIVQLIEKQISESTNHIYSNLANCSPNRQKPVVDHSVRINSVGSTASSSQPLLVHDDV
Sequence of GSK3alpha (P49840 whole entry): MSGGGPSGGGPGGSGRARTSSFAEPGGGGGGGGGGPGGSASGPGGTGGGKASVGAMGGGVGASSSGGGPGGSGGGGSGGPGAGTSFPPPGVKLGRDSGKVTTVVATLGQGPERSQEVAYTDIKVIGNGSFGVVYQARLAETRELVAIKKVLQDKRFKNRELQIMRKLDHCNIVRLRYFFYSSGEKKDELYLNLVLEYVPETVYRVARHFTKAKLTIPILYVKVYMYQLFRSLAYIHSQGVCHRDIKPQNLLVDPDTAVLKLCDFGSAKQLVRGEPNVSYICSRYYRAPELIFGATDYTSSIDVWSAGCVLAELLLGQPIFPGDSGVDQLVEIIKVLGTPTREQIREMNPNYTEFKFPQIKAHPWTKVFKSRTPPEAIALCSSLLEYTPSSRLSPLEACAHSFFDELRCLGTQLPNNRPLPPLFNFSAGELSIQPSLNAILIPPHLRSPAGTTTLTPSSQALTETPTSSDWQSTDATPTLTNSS
Sequence of PhKgamma2 (P15735 whole entry): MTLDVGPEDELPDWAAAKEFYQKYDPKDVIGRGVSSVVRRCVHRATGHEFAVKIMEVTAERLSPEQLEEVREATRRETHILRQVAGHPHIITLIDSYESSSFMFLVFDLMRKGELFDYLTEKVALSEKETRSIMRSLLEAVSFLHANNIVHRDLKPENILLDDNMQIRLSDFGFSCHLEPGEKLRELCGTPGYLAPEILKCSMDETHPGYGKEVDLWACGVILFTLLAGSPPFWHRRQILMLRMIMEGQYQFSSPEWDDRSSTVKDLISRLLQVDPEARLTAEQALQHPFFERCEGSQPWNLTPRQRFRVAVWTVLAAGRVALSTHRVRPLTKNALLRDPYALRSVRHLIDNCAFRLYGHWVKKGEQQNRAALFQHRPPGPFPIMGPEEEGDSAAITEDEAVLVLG
Sequence of MKK7beta (O14733 whole entry, change not shown): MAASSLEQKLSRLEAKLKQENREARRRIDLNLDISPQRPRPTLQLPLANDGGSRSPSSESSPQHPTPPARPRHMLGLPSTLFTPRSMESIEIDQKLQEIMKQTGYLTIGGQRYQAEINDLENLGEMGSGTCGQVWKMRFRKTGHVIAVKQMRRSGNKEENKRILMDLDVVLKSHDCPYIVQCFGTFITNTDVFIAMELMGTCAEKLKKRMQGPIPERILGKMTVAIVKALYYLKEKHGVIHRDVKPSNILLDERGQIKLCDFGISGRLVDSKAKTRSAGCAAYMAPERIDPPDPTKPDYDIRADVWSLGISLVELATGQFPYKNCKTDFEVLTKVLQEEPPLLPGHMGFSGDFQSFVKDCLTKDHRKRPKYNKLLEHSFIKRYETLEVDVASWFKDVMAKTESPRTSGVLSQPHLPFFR
Sequence of MKK4_m (P47809 whole entry): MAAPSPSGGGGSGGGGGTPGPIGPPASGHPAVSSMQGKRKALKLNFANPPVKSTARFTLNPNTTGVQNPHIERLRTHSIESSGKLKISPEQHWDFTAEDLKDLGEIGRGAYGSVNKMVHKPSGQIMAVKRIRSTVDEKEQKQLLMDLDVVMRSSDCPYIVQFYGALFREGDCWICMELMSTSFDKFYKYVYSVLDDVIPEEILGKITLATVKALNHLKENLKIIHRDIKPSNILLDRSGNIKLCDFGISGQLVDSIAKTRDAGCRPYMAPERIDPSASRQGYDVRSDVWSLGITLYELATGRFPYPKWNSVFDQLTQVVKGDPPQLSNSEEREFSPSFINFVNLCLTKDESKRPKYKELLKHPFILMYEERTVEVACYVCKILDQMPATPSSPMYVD
Sequence of FGFR4 (P22455 22-802): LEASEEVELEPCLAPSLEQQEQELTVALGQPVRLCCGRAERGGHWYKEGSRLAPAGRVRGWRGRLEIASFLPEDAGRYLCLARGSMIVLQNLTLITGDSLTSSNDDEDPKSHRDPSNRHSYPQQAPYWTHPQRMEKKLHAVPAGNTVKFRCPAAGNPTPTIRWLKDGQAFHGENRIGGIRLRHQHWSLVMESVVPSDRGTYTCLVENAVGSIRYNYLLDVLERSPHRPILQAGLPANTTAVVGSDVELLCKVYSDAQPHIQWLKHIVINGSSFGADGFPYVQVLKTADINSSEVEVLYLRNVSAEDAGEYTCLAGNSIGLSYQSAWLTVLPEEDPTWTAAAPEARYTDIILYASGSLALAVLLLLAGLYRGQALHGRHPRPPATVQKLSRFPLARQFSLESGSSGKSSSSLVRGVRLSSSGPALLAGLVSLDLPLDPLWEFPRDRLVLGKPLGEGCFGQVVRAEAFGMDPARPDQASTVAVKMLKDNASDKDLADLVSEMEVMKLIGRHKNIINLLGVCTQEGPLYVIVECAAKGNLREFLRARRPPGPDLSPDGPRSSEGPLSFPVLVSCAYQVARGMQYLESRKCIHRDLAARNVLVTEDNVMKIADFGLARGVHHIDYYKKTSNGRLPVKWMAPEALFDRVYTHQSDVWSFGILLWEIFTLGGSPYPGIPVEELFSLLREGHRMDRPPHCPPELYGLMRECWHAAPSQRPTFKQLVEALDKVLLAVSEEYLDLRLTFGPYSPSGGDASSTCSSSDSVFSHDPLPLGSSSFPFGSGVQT
Sequence of MSSK1 (Q9UPE1 whole entry): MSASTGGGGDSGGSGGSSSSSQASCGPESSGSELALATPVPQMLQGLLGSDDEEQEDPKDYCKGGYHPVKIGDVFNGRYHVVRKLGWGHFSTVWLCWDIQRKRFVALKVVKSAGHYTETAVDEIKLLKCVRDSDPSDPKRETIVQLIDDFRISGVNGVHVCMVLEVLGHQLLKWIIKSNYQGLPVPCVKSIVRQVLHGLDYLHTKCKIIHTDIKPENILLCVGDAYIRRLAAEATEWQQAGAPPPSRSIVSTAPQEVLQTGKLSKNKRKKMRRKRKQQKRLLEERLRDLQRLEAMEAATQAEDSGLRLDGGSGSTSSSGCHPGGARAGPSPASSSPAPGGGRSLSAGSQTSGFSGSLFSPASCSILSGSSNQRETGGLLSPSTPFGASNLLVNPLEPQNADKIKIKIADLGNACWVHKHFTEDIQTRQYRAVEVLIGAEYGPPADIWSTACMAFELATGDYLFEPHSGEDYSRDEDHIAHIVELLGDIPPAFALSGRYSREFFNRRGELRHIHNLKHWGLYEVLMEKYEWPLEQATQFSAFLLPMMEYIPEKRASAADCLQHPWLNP

| SMILES | Avg. POC (PKCbetaI) [POC] | Avg. POC (LKB1) [POC] | Avg. POC (BTK) [POC] | Avg. POC (EphB2) [POC] | Avg. POC (PTK6) [POC] | Avg. POC (EphB1) [POC] | Avg. POC (MAPKAP-K2) [POC] | Avg. POC (VRK2) [POC] | Avg. POC (EphA5) [POC] | Avg. POC (MKK7beta) [POC] | Avg. POC (Rsk1) [POC] | Avg. POC (PKAC-alpha) [POC] | Avg. POC (EphA7) [POC] | Avg. POC (HIPK2) [POC] | Avg. POC (CHK2) [POC] | Avg. POC (ROCK-II) [POC] | Avg. POC (GSK3alpha) [POC] | Avg. POC (Fgr) [POC] | Avg. POC (AKT1) [POC] | Avg. POC (Mer) [POC] | further results |
| --- | --- | --- | --- | --- | --- | --- | --- | --- | --- | --- | --- | --- | --- | --- | --- | --- | --- | --- | --- | --- | --- |
| COCc1ccc2c(c1)C(NC(=O)Nc1c(C)c(-c3cnn(C)c3)nn1-c1ccccc1)COC2 (stereo not drawn) [Example 32, 1-(1′,4-dimethyl-1-phenyl-1H,1′H-[3,4′-bipyrazol]-5-yl)-3-(6-(methoxymethyl)isochroman-4-yl)urea] | 80 | 100 | 119 | 96.5 | 100 | 145.5 | 117.5 | 100.5 | 104.5 | 138.5 | 111.5 | 90 | 100.5 | 99.5 | 112 | 106 | 112.5 | 109.5 | 92 | 104 | Avg. POC (KIT): 94.5 POC; Avg. POC (Flt3): 115 POC; Avg. POC (TrkA): 0 POC; Avg. POC (JNK2alpha2): 102.5 POC; Avg. POC (MKK4_m): 133 POC; Avg. POC (MYLK): 97.5 POC; Avg. POC (mTOR/FKBP12): 113.5 POC; Avg. POC (Ret): 100.5 POC; Avg. POC (Abl2): 121.5 POC; Avg. POC (SGK3): 134 POC; Avg. POC (PRK2): 99.5 POC; Avg. POC (BrSK1): 114.5 POC; Avg. POC (PhKgamma2): 102.5 POC; Avg. POC (NEK11): 108 POC; Avg. POC (MSSK1): 105.5 POC; Avg. POC (Fer): 85 POC; Avg. POC (CDK6/cyclinD3): 108 POC; Avg. POC (FGFR4): 139.5 POC; Avg. POC (PDGFRalpha): 112.5 POC |
| Cc1c(-c2ccc(=O)n(C)c2)nn(-c2ccccc2)c1NC(=O)NC1CN(CC(F)(F)F)Cc2ccccc21 (stereo not drawn) [Example 26, 1-(4-methyl-3-(1-methyl-6-oxo-1,6-dihydropyridin-3-yl)-1-phenyl-1H-pyrazol-5-yl)-3-(2-(2,2,2-trifluoroethyl)-1,2,3,4-tetrahydroisoquinolin-4-yl)urea] | 89 | 95 | 139 | 109.5 | 121 | 116.5 | 120 | 98 | 106.5 | 144.5 | 121 | 116 | 108 | 103 | 109 | 110 | 115.5 | 114.5 | 100 | 98 | Avg. POC (KIT): 94 POC; Avg. POC (Flt3): 97.5 POC; Avg. POC (TrkA): 0.5 POC; Avg. POC (JNK2alpha2): 104 POC; Avg. POC (MKK4_m): 99.5 POC; Avg. POC (MYLK): 101 POC; Avg. POC (mTOR/FKBP12): 107.5 POC; Avg. POC (Ret): 106.5 POC; Avg. POC (Abl2): 105 POC; Avg. POC (SGK3): 104 POC; Avg. POC (PRK2): 110.5 POC; Avg. POC (BrSK1): 105.5 POC; Avg. POC (PhKgamma2): 108.5 POC; Avg. POC (NEK11): 113.5 POC; Avg. POC (MSSK1): 120.5 POC; Avg. POC (Fer): 98 POC; Avg. POC (CDK6/cyclinD3): 104.5 POC; Avg. POC (FGFR4): 123 POC; Avg. POC (PDGFRalpha): 104.5 POC |
| Cc1c(-c2cnn(C)c2)nn(-c2ccccc2)c1NC(=O)N[C@H]1CCCc2ccccc21 [Example 2, (S)-1-(1′,4-dimethyl-1-phenyl-1H,1′H-3,4′-bipyrazol-5-yl)-3-(1,2,3,4-tetrahydronaphthalen-1-yl)urea] | 99 | 103.5 | 111.5 | 125 | 129 | 108.5 | 137.5 | 109 | 119 | 129.5 | 117 | 138.5 | 116 | 97 | 119 | 108 | 123.5 | 131 | 130.5 | 109.5 | Avg. POC (KIT): 104 POC; Avg. POC (Flt3): 96.5 POC; Avg. POC (TrkA): 1.5 POC; Avg. POC (JNK2alpha2): 103.5 POC; Avg. POC (MKK4_m): 102.5 POC; Avg. POC (MYLK): 100 POC; Avg. POC (mTOR/FKBP12): 105 POC; Avg. POC (Ret): 118.5 POC; Avg. POC (Abl2): 112.5 POC; Avg. POC (SGK3): 137.5 POC; Avg. POC (PRK2): 128 POC; Avg. POC (BrSK1): 119 POC; Avg. POC (PhKgamma2): 113 POC; Avg. POC (NEK11): 108.5 POC; Avg. POC (MSSK1): 116 POC; Avg. POC (Fer): 110.5 POC; Avg. POC (CDK6/cyclinD3): 100 POC; Avg. POC (FGFR4): 124 POC; Avg. POC (PDGFRalpha): 123 POC |
| Cc1c(-c2cnn(C)c2)nn(-c2ccccc2)c1NC(=O)NC1CCOc2cc(F)ccc21 (stereo not drawn) [Example 12, 1-(1′,4-dimethyl-1-phenyl-1H,1′H-[3,4′-bipyrazol]-5-yl)-3-(7-fluorochroman-4-yl)urea] | 93.5 | 91 | 127 | 112 | 125.5 | 114 | 122.5 | 95 | 118.5 | 122.5 | 107.5 | 120.5 | 96.5 | 91.5 | 92 | 99 | 119.5 | 114.5 | 105.5 | 98 | Avg. POC (KIT): 102.5 POC; Avg. POC (Flt3): 90 POC; Avg. POC (TrkA): −0.5 POC; Avg. POC (JNK2alpha2): 96 POC; Avg. POC (MKK4_m): 144.5 POC; Avg. POC (MYLK): 99 POC; Avg. POC (mTOR/FKBP12): 105.5 POC; Avg. POC (Ret): 85 POC; Avg. POC (Abl2): 118 POC; Avg. POC (SGK3): 143.5 POC; Avg. POC (PRK2): 97.5 POC; Avg. POC (BrSK1): 111.5 POC; Avg. POC (PhKgamma2): 110 POC; Avg. POC (NEK11): 84.5 POC; Avg. POC (MSSK1): 112.5 POC; Avg. POC (Fer): 100.5 POC; Avg. POC (CDK6/cyclinD3): 103 POC; Avg. POC (FGFR4): 119 POC; Avg. POC (PDGFRalpha): 104.5 POC |
